Among the data in the METLIN SMRT retention time set (Domingo-Almenara et al. 2019) are RP-LC retention time values, retold here.

A short description of the data set: gradient 5% acetonitrile 3 min, to 50% in 2 min, to 85% in 15 min, held 3 min, 100 µL/min. As to conditions: column: Zorbax Extend-C18 2.1 x 50 mm; eluents: water / acetonitrile, 0.1% formic acid. The essentials:
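Retention times come from adduct peaks that were picked computationally and then checked by hand. The standards, pure and pooled in mixtures of ~100 molecules, were run on a Zorbax Extend-C18 column (2.1 × 50 mm, 1.8 μm) at 100 μL/min with water and acetonitrile, each with 0.1% formic acid. Detection was by quadrupole time-of-flight mass spectrometry in positive and negative ionization mode, with a dead volume of 40 μL and a dwell volume of 900 μL.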
Compound `O=C(COc1ccc2ccccc2c1)NCC(O)c1ccc(C(F)(F)F)cc1` (centres undefined) gave an RP-LC retention time of 898 s. The result for `Cc1oc2ccn(Cc3ccc(F)cc3)c(=O)c2c1C(=O)NCCN(C)C1CCCCC1` reads 762 s; that for `COc1ccc2c(c1)CCc1sc(NC(=O)c3ccco3)nc1-2`, 961 s. The compound `COc1ccc(-n2c(=O)c(C(=O)NC3CCCCCC3)c(O)c3cccnc32)cc1` displayed an RP-LC retention time of 1380 s. As for `CCN(CC)C(=O)CSc1c(C)cnc2c1c(=O)n(C)c(=O)n2C`, the figure is 752 s; as for `CSc1ccc(CNC(=O)C2CCCN(c3nccn4nc(-c5ccc(C)cc5C)cc34)C2)cc1` (centres undefined), 1030 s; as for `O=C(Cn1c(=O)n(C2CC2)c(=O)c2nscc21)N1CCN(c2ccccc2F)CC1`, 713 s. As for `CCn1c(=O)n(CC(=O)N2CCOCC2)c(=O)c2cnc(-c3ccc(Cl)cc3)nc21`, the RP-LC retention time was 934 s. Consider `CCCN1C(=O)CCc2cc(NC(=O)c3ccn(CC)n3)ccc21`, for which the RP-LC retention time turned out to be 756 s. The result for `CCN1CCCn2cc(S(=O)(=O)Nc3ccc(F)cc3)cc2C1=O` reads 721 s. As to `COc1ccc(CN2CCc3nc(N4CCOCC4)ncc3C2)c(OC)c1OC`, the RP-LC retention time came out at 597 s. The result for `COc1ccc(NC(=O)c2c(C)oc3c2C2=NCCN2C=N3)cc1Cl` reads 625 s; that for `CCOC(=O)c1ccc(NC(=O)C2CCN(C(=O)C3Sc4ccccc4NC3=O)CC2)cc1` (centres undefined), 805 s; that for `Cc1nc(-c2cn(C)c3ncccc23)sc1C(=O)NCc1ccc(F)cc1F`, 887 s. `Cc1ccc(C)c(C(=O)N2CCCC(c3nc(CNC(=O)C4CCC4)cs3)C2)c1` (centres undefined) yielded an RP-LC retention time of 748 s.

`O=C(NCc1ccco1)c1cc(C2CC2)on1` returned an RP-LC retention time of 717 s. The result for `O=C(c1ccc(F)cc1)N1CCN(S(=O)(=O)c2cc3c4c(c2)CCC(=O)N4CCC3)CC1` reads 808 s; that for `Cc1ccsc1C(=O)NC1(c2nc(-c3cccnc3)no2)CCCCC1`, 937 s; that for `CCc1nnc(-c2ccc3ccn(CC(=O)NCCc4sccc4C)c3c2)o1`, 1170 s. `COc1ccc(Cl)cc1S(=O)(=O)NCCc1cn(CC(C)C)c2ncccc12` gave an RP-LC retention time of 987 s.

Compound `O=C1c2ccccc2C(=O)N1CCCCN(C(=O)c1cccs1)c1ccc(F)cc1F` yielded an RP-LC retention time of 951 s. As for `O=C(NCC1CCCCC1)C1CCN(c2cncnc2N2CCOCC2)CC1`, the figure is 644 s; as for `Cc1ncoc1C(=O)N1CC(n2cc(COc3ccc(F)cc3)nn2)C1`, 722 s; as for `Cc1cc(NC(=O)CSc2nnc3sc4ccccc4n23)no1`, 668 s.

In the case of `O=C(N[C@H]1C[C@@H]2C[C@H]1N(C(=O)c1cccc(Cl)c1)C2)c1ccccc1`, the RP-LC retention time turned out to be 748 s. The result for `O=C(NCCc1cnc[nH]1)c1ccc2nc(CCc3ccccc3)oc2c1` reads 641 s; that for `Cc1cc(C(=O)N2CC3CN(S(=O)(=O)c4cccc(F)c4)CC(C2)O3)c(C)o1`, 828 s; that for `COc1ccc(-c2noc(C3CCCN3C(=O)Nc3ccc(C)cc3C)n2)cc1` (centres undefined), 925 s.

The compound `COc1cccc(CNC(=O)c2nnc(-c3ccc(S(=O)(=O)N(C)C)cc3)o2)c1OC` returned an RP-LC retention time of 829 s. `Cc1nnsc1C(=O)N1CCN(c2nc3ccc(OC(F)(F)F)cc3s2)CC1` came in with an RP-LC retention time of 903 s. As for `CCc1nc2c(NC(=O)Cc3cccnc3)cccn2n1`, the figure is 556 s. For the compound `CN1CCN(C(=O)C2CCN(S(=O)(=O)c3ccc4c(c3)sc(=O)n4C)CC2)CC1`, the RP-LC retention time turned out to be 596 s. As for `CCOC(=O)c1cc(-c2ccc(OC)c(S(=O)(=O)N3CCN(c4ccccn4)CC3)c2)on1`, the figure is 726 s; as for `O=C(NCCC1CCN(C(=O)Nc2cc(F)cc(F)c2)CC1)C1CCCC1`, 860 s. The result for `Cc1cc(C)c(NC(=O)Cn2nc(N3CCCC(C)C3)c3ccccc3c2=O)c(C)c1` (centres undefined) reads 1180 s; that for `CCCN(CC(=O)N1CCc2sccc2C1COc1ccc(F)cc1)C(=O)NCC` (centres undefined), 859 s. For `O=C(NC1CCN(Cc2ccccc2)CC1)c1csc(-c2ccc(N3CCCC3)nc2)n1`, the RP-LC retention time came out at 565 s.

On to `CNC(=O)c1c(F)cccc1Nc1nc(Nc2cc3c(cc2OC)CCN3C(=O)CN(C)C)nc2[nH]ccc12`, for which the RP-LC retention time was 652 s.

`O=C(NC1CCCCC1)C1CCCN(S(=O)(=O)c2c[nH]c(C(=O)N3CCCCCC3)c2)C1` (centres undefined): the RP-LC retention time amounted to 866 s. `COc1ccc(-c2nc(Cn3ccnc3)no2)cc1` showed an RP-LC retention time of 599 s.

For the compound `Cc1ccc(S(=O)(=O)N2CCC3(CC2)CC(C)(O)CCO3)cc1Cl` (centres undefined), the RP-LC retention time was found to be 888 s. As to `CCn1ccc2ccc(CCC(=O)N3CCN(c4ccc(F)cc4)CC3)cc21`, the RP-LC retention time worked out at 1030 s.

Turning to `Cc1ccc(-c2nc(-c3ccc4c(c3)oc(=O)n4C)no2)cc1F`, the RP-LC retention time worked out at 609 s. The result for `CCN(CC)C(=O)c1ccc2c(c1)nnn2CCNC(=O)Nc1cc(F)ccc1F` reads 714 s. The result for `COc1ccc2c(c1)CCc1c-2n[nH]c1C(=O)O` reads 674 s; that for `O=C1CCCN1CCCN(CC(=O)N1CCNCC1)C(=O)c1ccc(F)c(Cl)c1`, 581 s. The result for `Cn1cc(S(=O)(=O)N2CCC(C(=O)N3CCc4ccccc43)CC2)cc1C(=O)N1CCCC1` reads 805 s; that for `O=c1n(Cc2ccc(Cl)cc2)nc2c(S(=O)(=O)N3CCOCC3)cccn12`, 808 s. On to `O=C(NC1CCCCC1)C1CCCN(c2ccc3cc(S(=O)(=O)N4CCCCC4)ccc3n2)C1` (centres undefined), for which the RP-LC retention time turned out to be 832 s.

For `COc1ccc(-c2c(NC(=O)c3ccco3)oc3c(C)cccc3c2=O)cc1OC`, the RP-LC retention time is 747 s. As for `O=C(NC1CCN(c2cc(-c3ccccc3)[nH]n2)C1)c1cccs1` (centres undefined), the figure is 630 s; as for `Cc1cccc(NC(=O)Cn2nc3n(c2=O)CCCCC3)c1C`, 675 s; as for `CC(C)Cn1c(=O)c2ccccc2n(Cc2nc(-c3ccc(C(F)(F)F)cc3)no2)c1=O`, 1300 s. For the compound `CCCC(=O)NC1(c2nc(-c3ccncc3)no2)CCCCC1`, the RP-LC retention time stood at 747 s.

Take `CCCN1C(=O)c2cc(S(=O)(=O)NCc3ccc(C)o3)ccc2Oc2cccnc21`: the RP-LC retention time was 995 s. The result for `CCn1c(CC2CCN(C(=O)Nc3ccc(C)cc3)C2)nc2cccnc21` (centres undefined) reads 600 s; that for `CC(=O)N1CCCc2cc(S(=O)(=O)N3CCC(C(=O)N4CCc5ccccc5C4)CC3)ccc21`, 843 s. As for `CC1CCN(C(=O)C2CCc3sc(C(=O)N4CCOCC4)cc3C2)CC1` (centres undefined), the figure is 776 s. As for `CCCc1noc(-c2ccc(-n3cnc(C(=O)NC4CCCC4)c3)nc2)n1`, the figure is 915 s; as for `COC(=O)c1ncn2c1C(=O)N(Cc1ccc(C)cc1)C(C)(C(=O)NCc1ccccc1)C2` (centres undefined), 747 s; as for `CCOc1ccc(NCC(O)Cn2c3ccccc3n3c(=O)cc(C)c(C#N)c23)cc1` (centres undefined), 668 s. The compound `CC1CCN(S(=O)(=O)N2CCC(C(=O)N3CCC(Cc4nncn4CC4CC4)CC3)CC2)CC1` came in with an RP-LC retention time of 751 s. As to `O=C(CCc1nc(N2CCCCC2)c2c(-c3ccc(F)cc3)noc2n1)N1CCOCC1`, the RP-LC retention time was 902 s. For `CN(CCCNC(=O)c1sc2ncccc2c1-n1cccc1)Cc1ccccc1`, the RP-LC retention time is 662 s. As for `COc1ccc(CNc2nccn(-c3ccc4c(c3)OCO4)c2=O)cc1OC`, the figure is 724 s. As for `COc1ccc(CNC(=O)C2CCCN(c3nccnc3Sc3ccccc3)C2)cc1OC` (centres undefined), the figure is 1120 s; as for `Cc1cc2c(N3CCCC(C(=O)NCc4ccc(N5CCC(C)CC5)cc4)C3)nccc2s1` (centres undefined), 592 s; as for `O=C(NC1CC(=O)N(Cc2ccccc2)C1)c1cnccn1` (centres undefined), 632 s. In turn, `Cc1ccc2nc(-c3ccc(C)c(NC(=O)C(C)C)c3)[nH]c2c1` gave an RP-LC retention time of 654 s. `CCCc1cc(N2CCN(C(=O)c3cccn3C)CC2)nc2nnc(CC)n12`: the RP-LC retention time is 636 s.

`Cc1nc2cccnc2n1C1CCN(C(=O)Nc2ccccc2Cl)CC1` registered an RP-LC retention time of 635 s. The result for `CC1Cc2ccccc2N1C(=O)Cc1csc2nc(-c3ccccc3)cn12` (centres undefined) reads 881 s. Regarding `CCNC(=O)N1CCCC(c2cccc(C(=O)NCCCN3CCCCC3)c2)C1` (centres undefined), the RP-LC retention time is 596 s. As for `Cc1ccc(Cn2c(CN3CCC(C(=O)NCCC4=CCCCC4)CC3)cc3ccccc32)cc1`, the figure is 952 s; as for `COCCNC(=O)N1CCCN(C2=NS(=O)(=O)C(c3ccc(Cl)cc3)=C2C)CC1`, 718 s; as for `Cc1cc(C2CCCN2C(=O)c2cc(F)c(F)cc2Cl)no1` (centres undefined), 832 s.

Compound `Cc1cc(C(=O)NC(C)C)c2cc(F)ccc2n1` displayed an RP-LC retention time of 639 s.

Regarding `COCCC(=O)N1CCC2(CCC2NC(=O)COC)CC1` (centres undefined), the RP-LC retention time came out at 594 s. As for `CCCc1c(C(=O)O)nnn1Cc1ccccc1`, the figure is 746 s.
